Experimental data from patent publication US8404643B2, “Metastin derivatives and use thereof” (priority 2005, dated 2013).
Square brackets hold non-standard residues; d marks the D form. Peptide text beside a SMILES is read from it. * marks the point of attachment. Phe(4-Cl) = N[C@@H](Cc1ccc(Cl)cc1)C(=O)O; Phe(3-F) = N[C@@H](Cc1cccc(F)c1)C(=O)O; Arg(Me) = CNC(=N)NCCC[C@H](N)C(=O)O; Ala(cPr) = N[C@@H](CC1CC1)C(=O)O; Hyp = O=C(O)[C@@H]1C[C@@H](O)CN1; dNMeF = CN[C@H](Cc1ccccc1)C(=O)O; Cit = NC(=O)NCCC[C@H](N)C(=O)O; NMeS = CN[C@@H](CO)C(=O)O; NMeA = CN[C@@H](C)C(=O)O; Aze = O=C(O)[C@@H]1CCN1; NHBn = c1ccc(CN*)cc1; azaGly = NNC(=O)O

molecular target: T1, hOT7T175 (Homo sapiens, UniProt Q969F8); experiment: Assay for intracellular Ca ion level-increasing activity using FLIPR; format: cell-based; conditions: hOT7T175/CHO cells, relative to Metastin (1-54)
T1 construct: expressed in transfected cells
Procedure, shortened: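 CHO/dhfr− cells stably transfected with hOT7T175, selected for high metastin response, loaded with Fluo3-AM for 1 h at 37 °C in HANKS/HBSS (pH 7.4) with probenecid. Peptides were diluted from 1×10^−3 M DMSO stock into HANKS/HBSS with 2.5 mM probenecid, 0.2% BSA, 0.1% CHAPS; intracellular Ca rise read by FLIPR.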

T1 sequence (Q969F8 whole entry L364H): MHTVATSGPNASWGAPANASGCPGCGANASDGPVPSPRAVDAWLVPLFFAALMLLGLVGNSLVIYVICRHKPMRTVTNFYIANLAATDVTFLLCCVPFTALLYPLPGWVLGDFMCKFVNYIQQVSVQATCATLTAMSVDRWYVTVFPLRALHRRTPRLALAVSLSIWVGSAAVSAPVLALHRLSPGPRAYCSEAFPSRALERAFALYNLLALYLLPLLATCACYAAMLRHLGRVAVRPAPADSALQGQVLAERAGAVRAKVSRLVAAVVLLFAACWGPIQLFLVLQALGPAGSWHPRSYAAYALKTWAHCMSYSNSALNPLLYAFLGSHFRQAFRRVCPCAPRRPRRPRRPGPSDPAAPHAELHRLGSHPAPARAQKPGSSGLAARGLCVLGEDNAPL

Compound	Specific Activity: intracellular Ca ion level-increasing activity [specific activity to Metastin (1-54)]
CNC(=N)NCCC[C@H](NC(=O)[C@H](CC(C)C)NC(=O)NNC(=O)[C@H](Cc1ccc(Cl)cc1)NC(=O)[C@@H](NC(=O)[C@H](CC(N)=O)NC(=O)[C@H](CCCCN)NC(=O)[C@@H](Cc1ccc(O)cc1)NC(C)=O)[C@@H](C)O)C(=O)N[C@@H](Cc1c[nH]c2ccccc12)C(N)=O [Compound No. 758, Ac-D-Tyr-Lys-Asn-Thr-Phe(4Cl)-AzaGly-Leu-Arg(Me)-Trp-NH2] (Ac-[dY]KNT[Phe(4-Cl)][azaGly]L[Arg(Me)]W-NH2)	1.8
CC(=O)N[C@H](Cc1ccc(O)cc1)C(=O)N1C[C@H](O)C[C@H]1C(=O)N[C@@H](CC(N)=O)C(=O)N[C@H](C(=O)N[C@@H](Cc1ccccc1)C(=O)NNC(=O)N[C@@H](CC(C)C)C(=O)N[C@@H](CCCNC(=N)N)C(=O)N[C@@H](Cc1c[nH]c2ccccc12)C(N)=O)[C@@H](C)O [Compound No. 797, Ac-D-Tyr-Hyp-Asn-Thr-Phe-AzaGly-Leu-Arg-Trp-NH2] (Ac-[dY][Hyp]NTF[azaGly]LRW-NH2)	1.4
CNC(=N)NCCC[C@H](NC(=O)[C@H](CC(C)C)NC(=O)NNC(=O)[C@H](Cc1ccccc1)NC(=O)[C@@H](NC(=O)[C@H](CC(=O)NCc1ccccc1)NC(=O)[C@@H](Cc1c[nH]c2ccccc12)NC(=O)[C@@H](Cc1ccc(O)cc1)NC(C)=O)[C@@H](C)O)C(=O)N[C@@H](Cc1c[nH]c2ccccc12)C(N)=O [Compound No. 716, Ac-D-Tyr-D-Trp-Asp(NHBzl)-Thr-Phe-AzaGly-Leu-Arg(Me)-Trp-NH2] (Ac-[dY][dW]D(NHBn)TF[azaGly]L[Arg(Me)]W-NH2)	3.6
CNC(=N)NCCC[C@H](NC(=O)[C@H](CC1CC1)NC(=O)NNC(=O)[C@H](Cc1ccccc1)NC(=O)[C@@H](NC(=O)[C@H](CC(N)=O)NC(=O)[C@@H]1C[C@@H](O)CN1C(=O)[C@@H](Cc1ccc(O)cc1)NC(C)=O)[C@@H](C)O)C(=O)N[C@@H](Cc1c[nH]c2ccccc12)C(N)=O [Compound No. 856, Ac-D-Tyr-Hyp-Asn-Thr-Phe-AzaGly-Ala(cPr)-Arg(Me)-Trp-NH2] (Ac-[dY][Hyp]NTF[azaGly][Ala(cPr)][Arg(Me)]W-NH2)	0.6
CNC(=N)NCCC[C@H](NC(=O)[C@H](CC(C)C)NC(=O)NNC(=O)[C@H](Cc1ccccc1)NC(=O)[C@@H](NC(=O)[C@H](CCCNC(N)=O)NC(=O)[C@@H]1C[C@@H](O)CN1C(=O)[C@@H](Cc1ccc(O)cc1)NC(C)=O)[C@@H](C)O)C(=O)N[C@@H](Cc1c[nH]c2ccccc12)C(N)=O [Compound No. 845, Ac-D-Tyr-Hyp-Cit-Thr-Phe-AzaGly-Leu-Arg(Me)-Trp-NH2] (Ac-[dY][Hyp][Cit]TF[azaGly]L[Arg(Me)]W-NH2)	1.0

More lines, now with the values ahead:

Specific Activity: intracellular Ca ion level-increasing activity [specific activity to Metastin (1-54)]	Compound
1.0	CNC(=N)NCCC[C@H](NC(=O)[C@H](CC(C)C)NC(=O)NNC(=O)[C@H](Cc1ccccc1)NC(=O)[C@H](CO)N(C)C(=O)[C@H](CC(N)=O)NC(=O)[C@@H]1C[C@@H](O)CN1C(=O)[C@@H](Cc1ccc(O)cc1)NC(C)=O)C(=O)N[C@@H](Cc1c[nH]c2ccccc12)C(N)=O [Compound No. 809, Ac-D-Tyr-Hyp-Asn-NMeSer-Phe-AzaGly-Leu-Arg(Me)-Trp-NH2] (Ac-[dY][Hyp]N[NMeS]F[azaGly]L[Arg(Me)]W-NH2)
3.2	CNC(=N)NCCC[C@H](NC(=O)[C@H](CC(C)C)NC(=O)NNC(=O)[C@H](Cc1cccc(F)c1)NC(=O)[C@@H](NC(=O)[C@H](CC(N)=O)NC(=O)CNC(=O)[C@@H](Cc1ccc(O)cc1)NC(C)=O)[C@@H](C)O)C(=O)N[C@@H](Cc1c[nH]c2ccccc12)C(N)=O [Compound No. 785, Ac-D-Tyr-Gly-Asn-Thr-Phe(3F)-AzaGly-Leu-Arg(Me)-Trp-NH2] (Ac-[dY]GNT[Phe(3-F)][azaGly]L[Arg(Me)]W-NH2)
0.8	CNC(=N)NCCC[C@H](NC(=O)[C@H](CC(C)C)NC(=O)NNC(=O)[C@H](Cc1ccccc1)NC(=O)[C@@H](NC(=O)[C@H](CC(N)=O)NC(=O)[C@@H]1CCN1C(=O)[C@@H](Cc1ccc(O)cc1)NC(C)=O)[C@@H](C)O)C(=O)N[C@@H](Cc1c[nH]c2ccccc12)C(N)=O [Compound No. 720, Ac-D-Tyr-Aze(2)-Asn-Thr-Phe-AzaGly-Leu-Arg(Me)-Trp-NH2] (Ac-[dY][Aze]NTF[azaGly]L[Arg(Me)]W-NH2)
1.8	CNC(=N)NCCC[C@H](NC(=O)[C@H](CC(C)C)NC(=O)NNC(=O)[C@H](Cc1ccccc1)NC(=O)[C@@H](NC(=O)[C@H](CC(N)=O)NC(=O)[C@@H](Cc1ccccc1)N(C)C(=O)[C@@H](Cc1ccc(O)cc1)NC(C)=O)[C@@H](C)O)C(=O)N[C@@H](Cc1c[nH]c2ccccc12)C(N)=O [Compound No. 782, Ac-D-Tyr-D-NMePhe-Asn-Thr-Phe-AzaGly-Leu-Arg(Me)-Trp-NH2] (Ac-[dY][dNMeF]NTF[azaGly]L[Arg(Me)]W-NH2)
2.2	CNC(=N)NCCC[C@H](NC(=O)[C@H](CC(C)C)NC(=O)NNC(=O)[C@H](Cc1ccccc1)NC(=O)[C@@H](NC(=O)[C@H](CC(N)=O)NC(=O)[C@H](CCC(=O)O)NC(=O)[C@@H](Cc1ccc(O)cc1)NC(C)=O)[C@@H](C)O)C(=O)N[C@@H](Cc1c[nH]c2ccccc12)C(N)=O [Compound No. 746, Ac-D-Tyr-Glu-Asn-Thr-Phe-AzaGly-Leu-Arg(Me)-Trp-NH2] (Ac-[dY]ENTF[azaGly]L[Arg(Me)]W-NH2)
2.7	CNC(=N)NCCC[C@H](NC(=O)[C@H](CC(C)C)NC(=O)NNC(=O)[C@H](Cc1ccccc1)NC(=O)[C@@H](NC(=O)[C@H](CC(N)=O)NC(=O)[C@H](C)N(C)C(=O)[C@@H](Cc1ccc(O)cc1)NC(C)=O)[C@@H](C)O)C(=O)N[C@@H](Cc1c[nH]c2ccccc12)C(N)=O [Compound No. 725, Ac-D-Tyr-NMeAla-Asn-Thr-Phe-AzaGly-Leu-Arg(Me)-Trp-NH2] (Ac-[dY][NMeA]NTF[azaGly]L[Arg(Me)]W-NH2)
